Consider 16 compounds from US8796466B2, “Hepatitis C virus inhibitors” (Bristol-Myers Squibb Company, priority 2009, dated 2014).

The first test has as its system HCV 1b genotype. The test is described as follows: HCV Replicon assay (HCV 1b genotype). The test is classed as cell-based, Hepatitis C virus. The settings on record: Hepatitis C virus; HCV 1b genotype replicon; Effective 50% inhibitory concentration; read-out: 1b EC50. Put shortly:
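HCV-neo replicon cells, wild-type plus lines carrying NS5A-region mutations, were exposed to compound; luciferase-reporter replicon variants were also used.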
Background: Replicon systems follow genome replication, usually without infectious particles.
A word on the EC50: it is the midpoint of the concentration-response curve. In the case of `COC(=O)N[C@H](C(=O)N1[C@@H]2C[C@@H]2C[C@H]1c1nc(-c2ccc(C#Cc3ccc(-c4c[nH]c([C@@H]5C[C@H]6C[C@H]6N5C(=O)[C@@H](NC(=O)OC)C5CCOCC5)n4)cc3)cc2)c[nH]1)C1CCOCC1` [Example M6, dimethyl (1,2-ethynediylbis(4,1-phenylene-1H-imidazole-4,2-diyl(1R,3S,5R)-2-azabicyclo[3.1.0]hexane-3,2-diyl((1S)-2-oxo-1-(tetrahydro-2H-pyran-4-yl)-2,1-ethanediyl)))biscarbamate], the EC50 amounted to 0.0033 nM. As to `COC(=O)N[C@@H](C(=O)N1CCC[C@H]1c1nc(-c2ccc(C#Cc3ccc(-c4c[nH]c([C@@H]5CCCN5C(=O)[C@H](NC(=O)OC)c5ccccc5)n4)cc3)cc2)c[nH]1)c1ccccc1` [Example M2, dimethyl (1,2-ethynediylbis(4,1-phenylene-1H-imidazole-4,2-diyl(2S)-2,1-pyrrolidinediyl((1R)-2-oxo-1-phenyl-2,1-ethanediyl)))biscarbamate], the EC50 was 0.24 nM.

Still in this test, the particulars now being: Hepatitis C virus; HCV 1b genotype replicon; class symbol; read-out: Range (EC50 values against HCV 1b).
Consider `COC(=O)N[C@H](C(=O)N1[C@@H]2C[C@@H]2C[C@H]1c1nc(-c2ccc(C#Cc3ccc(-c4c[nH]c([C@@H]5C[C@H]6C[C@H]6N5C(=O)[C@@H](NC(=O)OC)C(C)C)n4)cc3)cc2)c[nH]1)C(C)C` [Example M3, methyl ((1S)-1-(((1R,3S,5R)-3-(4-(4-((4-(2-((1R,3S,5R)-2-((2S)-2-((methoxycarbonyl)amino)-3-methylbutanoyl)-2-azabicyclo[3.1.0]hex-3-yl)-1H-imidazol-4-yl)phenyl)ethynyl)phenyl)-1H-imidazol-2-yl)-2-azabicyclo[3.1.0]hex-2-yl)carbonyl)-2-methylpropyl)carbamate], for which the EC50 was in the range of 0.002 to 0.099 nM. Turning to `COC(=O)N[C@H](C(=O)N1[C@H](c2ncc(-c3ccc(C#Cc4ccc(-c5cnc([C@@H]6C[C@@H]7C[C@@H]7N6C(=O)[C@@H](NC(=O)OC)C(C)C)[nH]5)cc4)cc3)[nH]2)C[C@@H]2C[C@@H]21)C(C)C` [Example N8, methyl((1S)-1-(((1S,3S,5S)-3-(4-(4-((4-(2-((1S,3S,5S)-2-((2S)-2-((methoxycarbonyl)amino)-3-methylbutanoyl)-2-azabicyclo[3.1.0]hex-3-yl)-1H-imidazol-4-yl)phenyl)ethynyl)phenyl)-1H-imidazol-2-yl)-2-azabicyclo[3.1.0]hex-2-yl)carbonyl)-2-methylpropyl)carbamate], the EC50 lay within 10 to 350 nM.

Turning to `COC(=O)N[C@H](C(=O)N1[C@@H]2C[C@@H]2C[C@H]1c1nc(Cl)c(-c2ccc(C#Cc3ccc(-c4[nH]c([C@@H]5C[C@H]6C[C@H]6N5C(=O)[C@@H](NC(=O)OC)C5CCOCC5)nc4Cl)cc3)cc2)[nH]1)C1CCOCC1` [Example M9.2, dimethyl (1,2-ethynediylbis(4,1-phenylene(4-chloro-1H-imidazole-5,2-diyl)(1R,3S,5R)-2-azabicyclo[3.1.0]hexane-3,2-diyl((1S)-2-oxo-1-(tetrahydro-2H-pyran-4-yl)-2,1-ethanediyl)))biscarbamate], the concentration giving a half-maximal response (EC50) lay within 0.002 to 0.099 nM. Same read-out and setting: in the case of `COC(=O)N[C@H](C(=O)N1[C@@H]2C[C@@H]2C[C@H]1c1nc(-c2ccc(C#Cc3ccc(-c4c[nH]c([C@@H]5C[C@H]6C[C@H]6N5C(=O)[C@@H](NC(=O)OC)C5CCC5)n4)cc3)cc2)c[nH]1)C1CCC1` [Example M5, dimethyl (1,2-ethynediylbis(4,1-phenylene-1H-imidazole-4,2-diyl(1R,3S,5R)-2-azabicyclo[3.1.0]hexane-3,2-diyl((1S)-1-cyclobutyl-2-oxo-2,1-ethanediyl)))biscarbamate] it was 0.1 to 0.99 nM; in that of `COC(=O)N[C@@H](C(=O)N1CCC[C@H]1c1nc(-c2ccc(-c3ccc(-c4ccc(-c5c[nH]c([C@@H]6CCCN6C(=O)[C@H](NC(=O)OC)c6ccccc6)n5)cc4)cc3)cc2)c[nH]1)c1ccccc1` [Example D-1, dimethyl (1,1′:4′,1″-terphenyl-4,4″-diylbis(1H-imidazole-4,2-diyl(2S)-2,1-pyrrolidinediyl((1R)-2-oxo-1-phenyl-2,1-ethanediyl)))biscarbamate], 0.002 to 0.099 nM; in that of `COC(=O)N[C@H](C(=O)N1[C@@H]2C[C@@H]2C[C@H]1c1ncc(-c2ccc(C#Cc3ccc4c(ccc5nc([C@@H]6C[C@H]7C[C@H]7N6C(=O)[C@@H](NC(=O)OC)C(C)C)[nH]c54)c3)cc2)[nH]1)C(C)C` [Example D-7, methyl ((1S)-1-(((1R,3S,5R)-3-(4-(4-((2-((1R,3S,5R)-2-((2S)-2-((methoxycarbonyl)amino)-3-methylbutanoyl)-2-azabicyclo[3.1.0]hex-3-yl)-1H-naphtho[1,2-d]imidazol-7-yl)ethynyl)phenyl)-1H-imidazol-2-yl)-2-azabicyclo[3.1.0]hex-2-yl)carbonyl)-2-methylpropyl)carbamate], 0.002 to 0.099 nM. The same measure, in the same setting: in the case of `COC(=O)N[C@H](C(=O)N1[C@@H]2C[C@@H]2C[C@H]1c1ncc(-c2cccc(C#Cc3cccc(-c4cnc([C@@H]5C[C@H]6C[C@H]6N5C(=O)[C@@H](NC(=O)OC)C(C)C)[nH]4)c3)c2)[nH]1)C(C)C` [Example J3, methyl ((1S)-1-(((1R,3S,5R)-3-(4-(3-((3-(2-((1R,3S,5R)-2-((2S)-2-((methoxycarbonyl)amino)-3-methylbutanoyl)-2-azabicyclo[3.1.0]hex-3-yl)-1H-imidazol-4-yl)phenyl)ethynyl)phenyl)-1H-imidazol-2-yl)-2-azabicyclo[3.1.0]hex-2-yl)carbonyl)-2-methylpropyl)carbamate] it was 0.002 to 0.099 nM; in that of `COC(=O)N[C@H](C(=O)N1C[C@@H](C)C[C@H]1c1ncc(-c2ccc(C#Cc3ccc(-c4cnc([C@@H]5C[C@H](C)CN5C(=O)[C@@H](NC(=O)OC)C(C)C)[nH]4)cc3)cc2)[nH]1)C(C)C` [Example M12.2, methyl ((1S)-1-(((2S,4S)-2-(4-(4-((4-(2-((2S,4S)-1-((2S)-2-((methoxycarbonyl)amino)-3-methylbutanoyl)-4-methyl-2-pyrrolidinyl)-1H-imidazol-4-yl)phenyl)ethynyl)phenyl)-1H-imidazol-2-yl)-4-methyl-1-pyrrolidinyl)carbonyl)-2-methylpropyl)carbamate], 0.002 to 0.099 nM; in that of `COC(=O)N[C@H](C(=O)N1[C@@H]2C[C@@H]2C[C@H]1c1nc(-c2ccc(C#Cc3ccc(-c4c[nH]c([C@@H]5C[C@H]6C[C@H]6N5C(=O)[C@@H](NC(=O)OC)C5CCOCC5)n4)cc3)cc2)c[nH]1)C1CCOCC1` [Example M6, dimethyl (1,2-ethynediylbis(4,1-phenylene-1H-imidazole-4,2-diyl(1R,3S,5R)-2-azabicyclo[3.1.0]hexane-3,2-diyl((1S)-2-oxo-1-(tetrahydro-2H-pyran-4-yl)-2,1-ethanediyl)))biscarbamate], 0.002 to 0.099 nM. With `COC(=O)N[C@H](C(=O)N1CCC[C@H]1c1nc(-c2ccc(C#Cc3ccc(-c4c[nH]c([C@@H]5CCCN5C(=O)[C@@H](NC(=O)OC)C(C)C)n4)cc3)cc2)c[nH]1)C(C)C` [Example M1, methyl ((1S)-1-(((2S)-2-(4-(4-((4-(2-((2S)-1-((2S)-2-((methoxycarbonyl)amino)-3-methylbutanoyl)-2-pyrrolidinyl)-1H-imidazol-4-yl)phenyl)ethynyl)phenyl)-1H-imidazol-2-yl)-1-prrolidinyl)carbonyl)-2-methylpropyl)carbamate], the EC50 fell in the range of 0.002 to 0.099 nM. `COC(=O)N[C@H](C(=O)N1[C@@H]2C[C@@H]2C[C@H]1c1nc(Cl)c(-c2ccc(C#Cc3ccc(-c4[nH]c([C@@H]5C[C@H]6C[C@H]6N5C(=O)[C@@H](NC(=O)OC)C(C)C)nc4Cl)cc3)cc2)[nH]1)C(C)C` [Example M9, methyl ((1S)-1-(((1R,3S,5R)-3-(4-chloro-5-(4-((4-(4-chloro-2-((1R,3S,5R)-2-((2S)-2-((methoxycarbonyl)amino)-3-methylbutanoyl)-2-azabicyclo[3.1.0]hex-3-yl)-1H-imidazol-5-yl)phenyl)ethynyl)phenyl)-1H-imidazol-2-yl)-2-azabicyclo[3.1.0]hex-2-yl)carbonyl)-2-methylpropyl)carbamate]: the concentration giving a half-maximal response (EC50) fell in the range of 0.002 to 0.099 nM. With `O=C([C@H](O)c1ccccc1)N1CCC[C@H]1c1nc(-c2ccc(CCc3ccc(-c4c[nH]c([C@@H]5CCCN5C(=O)[C@H](O)c5ccccc5)n4)cc3)cc2)c[nH]1` [OL-10, (1R,1′R)-2,2′-(1,2-ethanediylbis(4,1-phenylene-1H-imidazole-4,2-diyl(2S)-2,1-pyrrolidinediyl))bis(2-oxo-1-phenylethanol)], the EC50 was in the range of 0.002 to 0.099 nM. With `COC(=O)N[C@@H](C(=O)N1CCC[C@H]1c1nc(-c2ccc(C#Cc3ccc(-c4c[nH]c([C@@H]5CCCN5C(=O)[C@H](NC(=O)OC)c5ccccc5)n4)cc3)cc2)c[nH]1)c1ccccc1` [Example M2, dimethyl (1,2-ethynediylbis(4,1-phenylene-1H-imidazole-4,2-diyl(2S)-2,1-pyrrolidinediyl((1R)-2-oxo-1-phenyl-2,1-ethanediyl)))biscarbamate], the EC50 fell in the range of 0.1 to 0.99 nM. Turning to `COC(=O)N[C@H](C(=O)N1[C@@H]2C[C@@H]2C[C@H]1c1nc(-c2ccc(/C=C/c3ccc(-c4c[nH]c([C@@H]5C[C@H]6C[C@H]6N5C(=O)[C@@H](NC(=O)OC)C5CCOCC5)n4)cc3)cc2)c[nH]1)C(C)C` [Example M15, methyl ((1S)-2-((1R,3S,5R)-3-(4-(4-((E)-2-(4-(2-((1R,3S,5R)-2-((2S)-2-((methoxycarbonyl)amino)-3-methylbutanoyl)-2-azabicyclo[3.1.0]hex-3-yl)-1H-imidazol-4-yl)phenyl)vinyl)phenyl)-1H-imidazol-2-yl)-2-azabicyclo[3.1.0]hex-2-yl)-2-oxo-1-(tetrahydro-2H-pyran-4-yl)ethyl)carbamate], the EC50 was in the range of 0.002 to 0.099 nM.

`CC[C@H](NC(=O)OC)C(=O)N1[C@@H](C)CC[C@H]1c1nc(-c2ccc(C#Cc3ccc(-c4c[nH]c([C@@H]5CC[C@H](C)N5C(=O)[C@H](CC)NC(=O)OC)n4)cc3)cc2)c[nH]1` [Example M11, dimethyl (1,2-ethynediylbis(4,1-phenylene-1H-imidazole-4,2-diyl((2S,5S)-5-methyl-2,1-pyrrolidinediyl)((2S)-1-oxo-1,2-butanediyl)))biscarbamate]: the EC50 lay within 0.002 to 0.099 nM. Consider `COC(=O)N[C@H](C(=O)N1C[C@@H](C)C[C@H]1c1nc(-c2ccc(C#Cc3ccc(-c4[nH]c([C@@H]5C[C@H](C)CN5C(=O)[C@@H](NC(=O)OC)C(C)C)nc4Cl)cc3)cc2)c[nH]1)C(C)C` [Example M12.4, methyl ((1S)-1-(((2S,4S)-2-(4-(4-((4-(4-chloro-2-((2S,4S)-1-((2S)-2-((methoxycarbonyl)amino)-3-methylbutanoyl)-4-methyl-2-pyrrolidinyl)-1H-imidazol-5-yl)phenyl)ethynyl)phenyl)-1H-imidazol-2-yl)-4-methyl-1-pyrrolidinyl)carbonyl)-2-methylpropyl)carbamate], for which the EC50 was 0.002 to 0.099 nM.
